From paper PMC7093416, “Selective USP7 inhibition elicits cancer cell killing through a p53-dependent mechanism” (Scientific Reports, 2020)
“And” between values parts separate entries of the source, which are not always exact repeats. Identical values can stand only once.

Test system: panel of 484 cancer cell lines
Assay: PRISM cancer cell line profiling, 5 days
Format: cell-based
Design: Viability: scale not given here; AUC: unit not given beside the values
Experimental: Cancer cell line profiling was performed using the Broad’s PRISM platform. Cell treatment and data analysis were performed as described in Yu et al[42]. Raw Luminex signal was converted to AUC values for each cell line as described. The resulting AUC profile for each compound was modeled against DepMap using the limma package in R[71]. Because hotspot mutation analysis was performed against DepMap, TP53 annotations in Fig. 6c,d are directly from DepMap.

[1] = HEC59_ENDOMETRIUM, pert_dose 6.10E-04
[2] = HEC108_ENDOMETRIUM, pert_dose 6.10E-04
[3] = HEC151_ENDOMETRIUM, pert_dose 6.10E-04
[4] = HEP3B217_LIVER, pert_dose 6.10E-04
[5] = HEYA8_OVARY, pert_dose 6.10E-04
[6] = HPAC_PANCREAS, pert_dose 6.10E-04
[7] = HS294T_SKIN, pert_dose 6.10E-04
[8] = HS618T_LUNG, pert_dose 6.10E-04
[9] = HS729_SOFT_TISSUE, pert_dose 6.10E-04
[10] = HS766T_PANCREAS, pert_dose 6.10E-04
[11] = HS852T_SKIN, pert_dose 6.10E-04
[12] = HS939T_SKIN, pert_dose 6.10E-04
[13] = HSC2_UPPER_AERODIGESTIVE_TRACT, pert_dose 6.10E-04
[14] = HSC3_UPPER_AERODIGESTIVE_TRACT, pert_dose 6.10E-04
[15] = HT29_LARGE_INTESTINE, pert_dose 6.10E-04
[16] = HT55_LARGE_INTESTINE, pert_dose 6.10E-04
[17] = HUCCT1_BILIARY_TRACT, pert_dose 6.10E-04
[18] = HUH28_BILIARY_TRACT, pert_dose 6.10E-04
[19] = IGROV1_OVARY, pert_dose 6.10E-04
[20] = IPC298_SKIN, pert_dose 6.10E-04

With `COc1ccc(C2=N[C@@H](c3ccc(Cl)cc3)[C@@H](c3ccc(Cl)cc3)N2C(=O)N2CCNC(=O)C2)c(OC(C)C)c1` [Nutlin-3A] the AUC (HEC59_ENDOMETRIUM) was 1.062, the “MFI HEC59_ENDOMETRIUM” value [1] was 10418.5 and 8852 and 7376 and 10636 and 7469 and the Viability [1] was 1.236. The AUC (HEC108_ENDOMETRIUM) was 0.9813, the “MFI HEC108_ENDOMETRIUM” value [2] was 22169.5 and 21680 and 21571 and 20999 and 14974 and the Viability [2] was 1.448. The AUC (HEC151_ENDOMETRIUM) was 0.8923, the “MFI HEC151_ENDOMETRIUM” value [3] was 15512 and 13471 and 16551 and 13036 and 13374 and the Viability [3] was 1.158. The AUC (HEC251_ENDOMETRIUM) was 1.051, the AUC (HEC265_ENDOMETRIUM) was 0.862 and the Viability (HEC265_ENDOMETRIUM, pert_dose 6.10E-04) was 1.3422. For the same compound, the AUC (HEP3B217_LIVER) was 1.168, the “MFI HEP3B217_LIVER” value [4] was 4895 and 4355 and 5398 and 5541 and 7085.5 and the Viability [4] was 1.05. For the same compound, the AUC (HEYA8_OVARY) was 0.8732, the “MFI HEYA8_OVARY” value [5] was 14485.5 and 11701.5 and 12129 and 10947 and 12823 and the Viability [5] was 1.321. It also gave an AUC (HGC27_STOMACH) of 1.116, an AUC (HLF_LIVER) of 1.153 and an AUC (HMC18_BREAST) of 1.214. For the same compound, the “MFI HMC18_BREAST” value (HMC18_BREAST, pert_dose 6.10E-04) was 29555.5 and 31726 and 28535 and 27291 and 25031.5, the AUC (HOS_BONE) was 1.0473 and the “MFI HOS_BONE” value (HOS_BONE, pert_dose 6.10E-04) was 25115 and 17203.5 and 23311.5 and 23304 and 24478. For the same compound, the Viability (HOS_BONE, pert_dose 6.10E-04) was 1.257, the AUC (HPAC_PANCREAS) was 1.491 and the “MFI HPAC_PANCREAS” value [6] was 14040 and 13836.5 and 12138 and 14386 and 13656. The Viability [6] was 1.593, the AUC (HS294T_SKIN) was 0.8649 and the “MFI HS294T_SKIN” value [7] was 15509 and 11081.5 and 12624.5 and 16477 and 13812.5. The Viability [7] was 1.3841, the AUC (HS618T_LUNG) was 1.119 and the “MFI HS618T_LUNG” value [8] was 423.5 and 422.5 and 583 and 491 and 486.5. For the same compound, the Viability [8] was 1.131, the AUC (HS729_SOFT_TISSUE) was 1.053 and the “MFI HS729_SOFT_TISSUE” value [9] was 5267.5 and 3467.5 and 6111 and 4197 and 4598. The Viability [9] was 1.333, the AUC (HS766T_PANCREAS) was 1.165 and the “MFI HS766T_PANCREAS” value [10] was 2873 and 4107.5 and 4713 and 3779 and 3684. For the same compound, the Viability [10] was 0.8691, the AUC (HS852T_SKIN) was 0.95 and the “MFI HS852T_SKIN” value [11] was 952 and 665.5 and 666.5 and 706 and 781.5. The Viability [11] was 1.404, the AUC (HS939T_SKIN) was 0.8847 and the “MFI HS939T_SKIN” value [12] was 1676 and 1756.5 and 2260 and 2253 and 2240. For the same compound, the Viability [12] was 0.6815, the AUC (HS944T_SKIN) was 1.082 and the AUC (HSC2_UPPER_AERODIGESTIVE_TRACT) was 0.986. For the same compound, the “MFI HSC2_UPPER_AERODIGESTIVE_TRACT” value [13] was 16228 and 12093.5 and 8568 and 11207.5 and 10414, the Viability [13] was 1.409 and the AUC (HSC3_UPPER_AERODIGESTIVE_TRACT) was 1.141. The “MFI HSC3_UPPER_AERODIGESTIVE_TRACT” value [14] was 19468 and 21785 and 24258 and 21275 and 18776, the Viability [14] was 1.0036 and the AUC (HT29_LARGE_INTESTINE) was 1.34. The “MFI HT29_LARGE_INTESTINE” value [15] was 15605 and 16428.5 and 18104 and 14824 and 17298, the Viability [15] was 1.215 and the AUC (HT55_LARGE_INTESTINE) was 1.149. The “MFI HT55_LARGE_INTESTINE” value [16] was 18343 and 20659.5 and 20881.5 and 14879 and 18638, the Viability [16] was 1.081 and the AUC (HT144_SKIN) was 0.8778. The AUC (HT1080_SOFT_TISSUE) was 0.7842, the AUC (HT1376_URINARY_TRACT) was 1.193 and the AUC (HUCCT1_BILIARY_TRACT) was 1.095. For the same compound, the “MFI HUCCT1_BILIARY_TRACT” value [17] was 24976 and 22701 and 21301.5 and 24041 and 22645, the Viability [17] was 1.1214 and the AUC (HUH6_LIVER) was 1.038. For the same compound, the “MFI HUH6_LIVER” value (HUH6_LIVER, pert_dose 6.10E-04) was 2954 and 3148.5 and 3422 and 2906 and 2817, the Viability (HUH6_LIVER, pert_dose 6.10E-04) was 1.443 and the AUC (HUH7_LIVER) was 1.414. For the same compound, the “MFI HUH7_LIVER” value (HUH7_LIVER, pert_dose 6.10E-04) was 2519 and 3872.5 and 2817 and 4186 and 2978, the Viability (HUH7_LIVER, pert_dose 6.10E-04) was 1.154 and the AUC (HUH28_BILIARY_TRACT) was 1.075. For the same compound, the “MFI HUH28_BILIARY_TRACT” value [18] was 10419.5 and 14552 and 18877 and 11771 and 16814, the Viability [18] was 1.064 and the AUC (HUPT3_PANCREAS) was 1.108. The “MFI HUPT3_PANCREAS” value (HUPT3_PANCREAS, pert_dose 6.10E-04) was 6399 and 3235.5 and 3378 and 3719 and 5662, the AUC (IALM_LUNG) was 1.093 and the “MFI IALM_LUNG” value (IALM_LUNG, pert_dose 6.10E-04) was 15214 and 17539 and 16640 and 15373 and 14718. For the same compound, the Viability (IALM_LUNG, pert_dose 6.10E-04) was 0.9343, the AUC (IGR1_SKIN) was 0.9397 and the “MFI IGR1_SKIN” value (IGR1_SKIN, pert_dose 6.10E-04) was 9685 and 12749 and 10992 and 10674 and 10187.5. The Viability (IGR1_SKIN, pert_dose 6.10E-04) was 1.096, the AUC (IGR37_SKIN) was 1.088 and the Viability (IGR37_SKIN, pert_dose 6.10E-04) was 0.7539. For the same compound, the AUC (IGROV1_OVARY) was 0.9652, the “MFI IGROV1_OVARY” value [19] was 16733 and 14037 and 9860 and 14121 and 11292 and the Viability [19] was 1.232. The AUC (IM95_STOMACH) was 0.8918, the AUC (IPC298_SKIN) was 1.102 and the “MFI IPC298_SKIN” value [20] was 24999 and 31830 and 20542 and 28455.5 and 32422. It also gave a Viability [20] of 1.1324 and an AUC (ISHIKAWAHERAKLIO02ER_ENDOMETRIUM) of 1.148.
